In patent US7750013B2, “N-oxides as prodrugs of piperazine and piperidine derivatives” (Solvay Pharmaceuticals, B.V., priority 2005, dated 2010):

What was measured:
[1] = Plasma concentrations of tertiary amines and their N-oxides in mice (LC-MS); conditions: mouse, in vivo
Procedure: The LC-MS system consists of 2 Perkin elmer series 200 micro pumps. The pumps are connected to each other by a 50 μl tee mixer, connected to a Gilson 215 auto sampler. The method is as follows:
The auto sampler has a 2 μl injection loop. The auto sampler is connected to a Waters Atlantis C18 30*4.6 mm column with 3 μm particles. The column is thermo stated in a Perkin Elmer series 200 column oven at 40° C. The column is connected to a Perkin Elmer series 200 UV meter with a 2.7 μl flowcel. The wavelength is set to 254 nm. The UV meter is connected to a Sciex API 150EX mass spectrometer. The mass spectrometer has the following parameters: Scanrange: 150-900 a.m.u.; polarity: positive; scan mode: profile; resolution Q1: UNIT; step size: 0.10 a.m.u.; time per scan: 0.500 sec; NEB: 10; CUR: 10; IS: 5200; TEM: 325; DF: 30; FP: 225 and EP: 10. The light scattering detector is connected to the Sciex API 150. The light scattering detector is a Sedere Sedex 55 operating at 50° C. and 3 bar N2. The complete system is controlled by a G3 powermac.
For oral (p.o.) administration: to the desired quantity (0.5-5 mg) of the solid test compound in a glass tube, some glass beads were added and the solid was milled by vortexing for 2 minutes. After addition of 1 ml of a solution of 1% methylcellulose in water and 2% (v/v) of Poloxamer 188 (Lutrol F68), the compound was suspended by vortexing for 10 minutes. The pH was adjusted to 7. Remaining particles in the suspension were further suspended by using an ultrasonic bath.
For intravenous (i.v.) administration: compounds were dissolved in physiological saline (0.9% NaCl) and the pH was adjusted to 7.
Bifeprunox, SLV308 and SLV318 as well as their respective N-oxides were individually administered (either intravenously (i.v.) or orally (p.o.)) to mice (3 animals per time point), after which their blood was analyzed by LC-MS (method see above) for both the parent amine and its N-oxide. Data were averaged (n=3), and collected in the tables below.

[2] = Metabolism to the N-oxide in man; type: in vivo; conditions: after administration of the tertiary amine
Description: But also its N-desmethyl analog and its N-oxide were detected in the plasma of all three species, after oral administration of SLV308. In man, the N-oxide accounts for approximately 30% of the administered dose.
In man, neither bifeprunox nor SLV318 are metabolized to their respective N-oxides. […] For this reason there never has been an incentive to synthesize and study these compounds until the unexpected findings with the N-oxide of SLV308.

O=c1[nH]c2cccc(N3CC[N+]([O-])(Cc4ccccc4)CC3)c2o1 [N-oxide of SLV318, N-Oxide of SLV318]
Analyzed in blood: N-oxide (of SLV318) ([1]; iv, 0.5 mg/kg, 24 hr): 0 ng/mL | Analyzed in blood: SLV318 ([1]; po, 5 mg/kg, 0.17 hr): 1 ng/mL | Analyzed in blood: SLV318 ([1]; po, 5 mg/kg, 0.5 hr): 7 ng/mL | Analyzed in blood: N-oxide (of SLV318) ([1]; po, 5 mg/kg, 3 hr): 0 ng/mL | Analyzed in blood: SLV318 ([1]; po, 5 mg/kg, 24 hr): 0 ng/mL

O=c1[nH]c2cccc(N3CC[N+]([O-])(Cc4cccc(-c5ccccc5)c4)CC3)c2o1 [N-oxide of bifeprunox, N-Oxide of Bifeprunox]
Analyzed in blood: Bifeprunox ([1]; iv, 0.5 mg/kg, 0 hr): 0 ng/mL | Analyzed in blood: Bifeprunox ([1]; iv, 0.5 mg/kg, 0.5 hr): 176 ng/mL | Analyzed in blood: N-oxide (of bifeprunox) ([1]; iv, 0.5 mg/kg, 0.5 hr): 85 ng/mL | Analyzed in blood: Bifeprunox ([1]; iv, 0.5 mg/kg, 3 hr): 80 ng/mL | Analyzed in blood: N-oxide (of bifeprunox) ([1]; iv, 0.5 mg/kg, 7 hr): 5 ng/mL | Analyzed in blood: N-oxide (of bifeprunox) ([1]; iv, 0.5 mg/kg, 24 hr): 0 ng/mL | Analyzed in blood: Bifeprunox ([1]; po, 5 mg/kg, 1 hr): 520 ng/mL | Analyzed in blood: N-oxide (of bifeprunox) ([1]; po, 5 mg/kg, 1 hr): 70 ng/mL | Analyzed in blood: N-oxide (of bifeprunox) ([1]; po, 5 mg/kg, 7 hr): 48 ng/mL | Analyzed in blood: Bifeprunox ([1]; po, 5 mg/kg, 24 hr): 38 ng/mL | Analyzed in blood: N-oxide (of bifeprunox) ([1]; po, 5 mg/kg, 24 hr): 6 ng/mL

O=c1[nH]c2cccc(N3CCN(Cc4ccccc4)CC3)c2o1 [SLV318]
Formation of N-oxide as metabolite (in words) [1]: does not give rise to a significant amount of N-oxide as metabolite | Analyzed in blood: N-oxide (of SLV318) ([1]; iv, 0.5 mg/kg, 0.17 hr): 1 ng/mL | Analyzed in blood: SLV318 ([1]; iv, 0.5 mg/kg, 0.17 hr): 164 ng/mL | Analyzed in blood: N-oxide (of SLV318) ([1]; iv, 0.5 mg/kg, 0.5 hr): 0 ng/mL | Analyzed in blood: SLV318 ([1]; iv, 0.5 mg/kg, 0.5 hr): 51 ng/mL | Analyzed in blood: N-oxide (of SLV318) ([1]; iv, 0.5 mg/kg, 1 hr): 0 ng/mL | Analyzed in blood: SLV318 ([1]; iv, 0.5 mg/kg, 1 hr): 18 ng/mL | Analyzed in blood: N-oxide (of SLV318) ([1]; iv, 0.5 mg/kg, 3 hr): 0 ng/mL | Analyzed in blood: SLV318 ([1]; iv, 0.5 mg/kg, 3 hr): 2 ng/mL | Analyzed in blood: N-oxide (of SLV318) ([1]; iv, 0.5 mg/kg, 7 hr): 0 ng/mL | Analyzed in blood: SLV318 ([1]; iv, 0.5 mg/kg, 7 hr): 0.2 ng/mL | Analyzed in blood: N-oxide (of SLV318) ([1]; iv, 0.5 mg/kg, 24 hr): 0 ng/mL | Analyzed in blood: SLV318 ([1]; iv, 0.5 mg/kg, 24 hr): 0 ng/mL | Analyzed in blood: N-oxide (of SLV318) ([1]; po, 5 mg/kg, 0.17 hr): 0 ng/mL | Analyzed in blood: SLV318 ([1]; po, 5 mg/kg, 0.17 hr): 71 ng/mL | Analyzed in blood: N-oxide (of SLV318) ([1]; po, 5 mg/kg, 0.5 hr): 0 ng/mL | Analyzed in blood: SLV318 ([1]; po, 5 mg/kg, 0.5 hr): 33 ng/mL | Analyzed in blood: N-oxide (of SLV318) ([1]; po, 5 mg/kg, 1 hr): 0 ng/mL | Analyzed in blood: SLV318 ([1]; po, 5 mg/kg, 1 hr): 19 ng/mL | Analyzed in blood: N-oxide (of SLV318) ([1]; po, 5 mg/kg, 3 hr): 0 ng/mL | Analyzed in blood: SLV318 ([1]; po, 5 mg/kg, 3 hr): 9 ng/mL | Analyzed in blood: N-oxide (of SLV318) ([1]; po, 5 mg/kg, 7 hr): 0 ng/mL | Analyzed in blood: SLV318 ([1]; po, 5 mg/kg, 7 hr): 2 ng/mL | Analyzed in blood: N-oxide (of SLV318) ([1]; po, 5 mg/kg, 24 hr): 0 ng/mL | Analyzed in blood: SLV318 ([1]; po, 5 mg/kg, 24 hr): 0 ng/mL | N-oxide as metabolite in blood plasma (in words) [2]: never detected in significant concentrations
